Experimental data: ChEMBL document CHEMBL3045572, “Mitochondrial impacts of insecticidal formate esters in insecticide-resistant and insecticide-susceptible Drosophila melanogaster” (Pest Manag Sci, 2009)
Calls of active or inactive are those of the source. No cut-off for these calls is given here.

Columns and labels:
Drosophila melanogaster [1] = assay: Inhibition of cytochrome c oxidase in insecticide-susceptible Drosophila melanogaster Canton-S mitochondria at 100 mM using reduced cytochrome c as substrate by microplate spectrophotometer analysis
Drosophila melanogaster [2] = assay: Disruption of mitochondria in insecticide-susceptible Drosophila melanogaster Canton-S assessed as increase in cytochrome c release from mitochondria to cytosol at 1 mM by western blot analysis; assay type: functional, organism-based
Drosophila melanogaster [3] = assay: Disruption of mitochondria in insecticide-susceptible Drosophila melanogaster Hikone-R assessed as increase in cytochrome c release from mitochondria to cytosol at 1 mM by western blot analysis; assay type: functional, organism-based
Drosophila melanogaster [4] = assay: Inhibition of cytochrome c oxidase in insecticide-resistance Drosophila melanogaster Hikone-R mitochondria at 100 mM using reduced cytochrome c as substrate by microplate spectrophotometer analysis
[5] = Inhibition of cytochrome c oxidase in insecticide-susceptible Drosophila melanogaster Canton-S mitochondria using reduced cytochrome c as substrate by microplate spectrophotometer analysis
[6] = Inhibition of cytochrome c oxidase in insecticide-resistance Drosophila melanogaster Hikone-R mitochondria using reduced cytochrome c as substrate by microplate spectrophotometer analysis
Drosophila melanogaster [7] = details: Hikone-R, Mitochondria, 10 mM
Description: Inhibition of cytochrome c oxidase in insecticide-resistance Drosophila melanogaster Hikone-R mitochondria at 10 mM using reduced cytochrome c as substrate by microplate spectrophotometer analysis

Drosophila melanogaster [8] = details: Canton-S, Mitochondria, 10 mM
Description: Inhibition of cytochrome c oxidase in insecticide-susceptible Drosophila melanogaster Canton-S mitochondria at 10 mM using reduced cytochrome c as substrate by microplate spectrophotometer analysis

| Structure (SMILES) | inhibition (Drosophila melanogaster [1]) [%] | Activity (Drosophila melanogaster [2]) | Activity (Drosophila melanogaster [3]) | inhibition (Drosophila melanogaster [4]) [%] | IC50 [5] [mM] | IC50 [6] [mM] | inhibition (Drosophila melanogaster [7]) [%] | inhibition (Drosophila melanogaster [8]) [%] |
| --- | --- | --- | --- | --- | --- | --- | --- | --- |
| COC=O | < 8 | Active | Active | < 8 |  |  |  |  |
| CCCCCC[C@H]1C(=O)O[C@H](C)[C@H](NC(=O)c2cccc(NC=O)c2O)C(=O)O[C@@H](C)[C@@H]1OC(=O)CC(C)C |  | Active | Active |  |  |  |  |  |
| CC(C)(C)OC=O | < 8 | Active | Active | < 8 |  |  |  |  |
| CCCOC=O | < 8 | Active | Active | < 8 |  |  |  |  |
| [N-]=[N+]=[N-] [SODIUM AZIDE] |  |  |  |  | > 16 | > 16 |  |  |
| CCCCCCCOC=O | < 8 | Active | Active | < 8 |  |  |  |  |
| CCC(=O)[O-].[Na+] [SODIUM PROPIONATE] |  |  |  |  | > 100 | > 100 |  |  |
| CCCCOC=O | < 8 | Active | Active | < 8 |  |  |  |  |
| CCOC=O | < 8 | Active | Active | < 8 |  |  |  |  |
| C=C(C)[C@H]1Cc2c(ccc3c2O[C@@H]2COc4cc(OC)c(OC)cc4[C@@H]2C3=O)O1 |  | Active | Active |  |  |  |  |  |
| CCCCCCOC=O | < 8 | Active | Active | < 8 |  |  |  |  |
| CC(=O)[O-].[Na+] [SODIUM ACETATE] |  |  |  |  | > 100 | > 100 |  |  |
| CC1(C)CNC(=NN=C(/C=C/c2ccc(C(F)(F)F)cc2)/C=C/c2ccc(C(F)(F)F)cc2)NC1 [HYDRAMETHYLNON] |  |  |  |  | 0.47 | 0.48 |  |  |
| O=C[O-].[Na+] [SODIUM FORMATE] |  | Active | Active |  | > 100 | > 100 | 3 | 3 |
| O=COCCOC=O | < 8 | Active | Active | < 8 |  |  |  |  |
